From the NIST ThermoML archive (doi:10.1021/je100707s)
“And” between values parts separate entries of the source, which are not always exact repeats. Identical values can stand only once.

Conditions: Gas, Bellows volumetry

F/C=C/C(F)(F)F [trans-1,3,3,3-tetrafluoropropene]
Conditions	mass density
310 K, 657 kPa	34.36 kg/m3
310 K, 669 kPa	35.06 kg/m3
310 K, 681 kPa	35.86 kg/m3
310 K, 695 kPa	36.78 kg/m3
320 K, 691 kPa	34.42 kg/m3
320 K, 701 kPa	35.05 kg/m3
320 K, 716 kPa	35.92 kg/m3
320 K, 730 kPa	36.8 kg/m3
320 K, 743 kPa	37.6 kg/m3
320 K, 759 kPa	38.61 kg/m3
320 K, 775 kPa	39.62 kg/m3
320 K, 791 kPa	40.64 kg/m3
320 K, 808 kPa	41.76 kg/m3
320 K, 823 kPa	42.77 kg/m3
320 K, 837 kPa	43.67 kg/m3
320 K, 851 kPa	44.36 kg/m3
320 K, 866 kPa	45.45 kg/m3
320 K, 881 kPa	46.49 kg/m3
320 K, 899 kPa	47.75 kg/m3
320 K, 910 kPa	48.63 kg/m3
330 K, 718 kPa	34.26 kg/m3
330 K, 731 kPa	34.99 kg/m3
330 K, 746 kPa	35.85 kg/m3
330 K, 762 kPa	36.76 kg/m3
330 K, 778 kPa	37.66 kg/m3
330 K, 792 kPa	38.48 kg/m3
330 K, 810 kPa	39.52 kg/m3
330 K, 828 kPa	40.65 kg/m3
330 K, 844 kPa	41.61 kg/m3
330 K, 866 kPa	42.95 kg/m3
330 K, 893 kPa	44.43 kg/m3
330 K, 908 kPa	45.39 kg/m3
330 K, 927 kPa	46.54 kg/m3
330 K, 943 kPa	47.55 kg/m3
330 K, 961 kPa	48.73 kg/m3
330 K, 981 kPa	50.03 kg/m3
330 K, 1001 kPa	51.36 kg/m3
330 K, 1020 kPa	52.67 kg/m3
330 K, 1041 kPa	54.12 kg/m3
330 K, 1063 kPa	55.64 kg/m3
330 K, 1075 kPa	56.44 kg/m3
330 K, 1097 kPa	57.98 kg/m3
330 K, 1113 kPa	59.21 kg/m3
330 K, 1139 kPa	61.03 kg/m3
330 K, 1165 kPa	63.02 kg/m3
340 K, 747 kPa	34.24 kg/m3
340 K, 762 kPa	35.03 kg/m3
340 K, 778 kPa	35.89 kg/m3
340 K, 794 kPa	36.75 kg/m3
340 K, 810 kPa	37.63 kg/m3
340 K, 827 kPa	38.54 kg/m3
340 K, 845 kPa	39.55 kg/m3
340 K, 864 kPa	40.55 kg/m3
340 K, 882 kPa	41.66 kg/m3
340 K, 903 kPa	42.85 kg/m3
340 K, 921 kPa	43.82 kg/m3
340 K, 933 kPa	44.41 kg/m3
340 K, 953 kPa	45.51 kg/m3
340 K, 971 kPa	46.56 kg/m3
340 K, 989 kPa	47.62 kg/m3
340 K, 1008 kPa	48.82 kg/m3
340 K, 1030 kPa	50.12 kg/m3
340 K, 1049 kPa	51.33 kg/m3
340 K, 1069 kPa	52.63 kg/m3
340 K, 1090 kPa	53.99 kg/m3
340 K, 1117 kPa	55.66 kg/m3
340 K, 1134 kPa	56.71 kg/m3
340 K, 1154 kPa	58.04 kg/m3
340 K, 1175 kPa	59.4 kg/m3
340 K, 1196 kPa	60.76 kg/m3
340 K, 1218 kPa	62.25 kg/m3
340 K, 1238 kPa	63.68 kg/m3
340 K, 1262 kPa	65.39 kg/m3
340 K, 1284 kPa	67.01 kg/m3
340 K, 1305 kPa	68.59 kg/m3
340 K, 1308 kPa	68.83 kg/m3
340 K, 1331 kPa	70.6 kg/m3 and 70.59 kg/m3
340 K, 1354 kPa	72.27 kg/m3
340 K, 1356 kPa	72.51 kg/m3
340 K, 1378 kPa	74.19 kg/m3
340 K, 1384 kPa	74.55 kg/m3
340 K, 1398 kPa	75.77 kg/m3
340 K, 1420 kPa	77.51 kg/m3
340 K, 1441 kPa	79.28 kg/m3
340 K, 1465 kPa	81.46 kg/m3
340 K, 1482 kPa	83.02 kg/m3
340 K, 1490 kPa	83.71 kg/m3
350 K, 777 kPa	34.25 kg/m3
350 K, 794 kPa	35.1 kg/m3
350 K, 809 kPa	35.85 kg/m3
350 K, 824 kPa	36.66 kg/m3
350 K, 841 kPa	37.55 kg/m3
350 K, 861 kPa	38.6 kg/m3
350 K, 880 kPa	39.57 kg/m3
350 K, 899 kPa	40.59 kg/m3
350 K, 921 kPa	41.8 kg/m3
350 K, 943 kPa	42.97 kg/m3
350 K, 974 kPa	44.44 kg/m3
350 K, 992 kPa	45.42 kg/m3
350 K, 1009 kPa	46.4 kg/m3
350 K, 1033 kPa	47.69 kg/m3
